# Reference: article PMC8137473, “Preclinical trial of a MAP4K4 inhibitor to reduce infarct size in the pig: does cardioprotection in human stem cell-derived myocytes predict success in large mammals?” (Basic Research in Cardiology, 2021)
# Tested on: swine
# Assay: pilot physiological study in healthy, chronically instrumented swine
# Type: in vivo
# Settings: for LV dP/dtmin: in mmHg/s (unit assumed)
# Method: Pilot physiological studies were performed in 2 female swine (45 and 85 kg), to confirm the lack of adverse effects from DMX-10001 in healthy myocardium. Animals were chronically instrumented as detailed below. Following a recovery week, animals received the pro-drug DMX-10001, while hemodynamics were recorded. Based on prior pharmacokinetic studies and modeling (Fig. 1b), two different dosing regimens were investigated, a three-step infusion (41 mg/kg/h, 0.5 h + 15.3 mg/kg/h, 2.5 h + 9.8 mg/kg/h, 5 h) versus a logistically simpler two-step approach (60 mg/kg/h, 0.5 h + 17 mg/kg/h, 23.5 h). During infusion of the pro-drug, blood was sampled to measure production of the active form, DMX-5804, by liquid chromatography–mass spectometry (Pharmidex, London, UK) as described.
# A chronically instrumented animal received DMX-10001 for 8 h as shown, with a rapid initial infusion then stepwise decreasing concentrations over time. […] HR, heart rate; MAP, mean arterial pressure; CO, cardiac output; SV, stroke volume; SVR, systemic vascular resistance; dP/dtmax, maximal rate of rise in LV pressure; dP/dtmin, maximal rate of fall in LV pressure.
# A chronically instrumented animal received DMX-10001 for 24 h as shown, starting with rapid infusion for half an hour then a lower concentration. […] HR, heart rate; MAP, mean arterial pressure; CO, cardiac output; SV, stroke volume; SVR, systemic vascular resistance; dP/dtmax, maximal rate of rise in LV pressure; dP/dtmin, maximal rate of fall in LV pressure.
# [1] = animal 1, three-step infusion, 2 min
# [2] = animal 1, three-step infusion, 10 min
# [3] = animal 1, three-step infusion, 40 min
# [4] = animal 1, three-step infusion, 1h
# [5] = animal 1, three-step infusion, 2h
# [6] = animal 1, three-step infusion, 3h
# [7] = animal 1, three-step infusion, 4h
# [8] = animal 1, three-step infusion, 6h
# [9] = animal 1, three-step infusion, 8h
# [10] = animal 1, three-step infusion, 8h 2 min
# [11] = animal 1, three-step infusion, 8h 10 min
# [12] = animal 1, three-step infusion, 8h 30 min
# [13] = animal 1, three-step infusion, Baseline
# [14] = animal 2, two-step infusion, 2 min
# [15] = animal 2, two-step infusion, 10min
# [16] = animal 2, two-step infusion, 30 min
# [17] = animal 2, two-step infusion, 40 min
# [18] = animal 2, two-step infusion, 2h
# [19] = animal 2, two-step infusion, 24h
# [20] = animal 2, two-step infusion, 24h 2 min
# [21] = animal 2, two-step infusion, 24h 10 min
# [22] = animal 2, two-step infusion, 24h 30 min
# [23] = animal 2, two-step infusion, 25h
# [24] = animal 2, two-step infusion, Baseline
smiles,measurement,setting,value
COCCOc1ccc(-c2cn(-c3ccccc3)c3ncn(COP(=O)(O)O)c(=O)c23)cc1 [DMX-10001],CO,[1],11.2 L/min
same,HR,[1],116 bpm
same,LV dP/dtmax,[1],4070 mmHg/s
same,MAP,[1],96 mmHg
same,SV,[1],97 mL
same,SVR,[1],8.6 mmHg/L/min
same,LV dP/dtmin,[1],-2280
same,CO,[2],11.1 L/min
same,HR,[2],112 bpm
same,LV dP/dtmax,[2],3290 mmHg/s
same,MAP,[2],88 mmHg
same,SV,[2],99 mL
same,SVR,[2],7.9 mmHg/L/min
same,LV dP/dtmin,[2],-2280
same,CO,[3],10.1 L/min
same,HR,[3],105 bpm
same,LV dP/dtmax,[3],4060 mmHg/s
same,MAP,[3],99 mmHg
same,SV,[3],96 mL
same,SVR,[3],9.8 mmHg/L/min
same,LV dP/dtmin,[3],-2530
same,CO,[4],10.7 L/min
same,HR,[4],115 bpm
same,LV dP/dtmax,[4],4040 mmHg/s
same,MAP,[4],103 mmHg
same,SV,[4],93 mL
same,SVR,[4],9.7 mmHg/L/min
same,LV dP/dtmin,[4],-2690
same,CO,[5],11.4 L/min
same,HR,[5],106 bpm
same,LV dP/dtmax,[5],4840 mmHg/s
same,MAP,[5],107 mmHg
same,SV,[5],108 mL
same,SVR,[5],9.4 mmHg/L/min
same,LV dP/dtmin,[5],-3270
same,CO,[6],13.0 L/min
same,HR,[6],120 bpm
same,LV dP/dtmax,[6],6030 mmHg/s
same,MAP,[6],117 mmHg
same,SV,[6],108 mL
same,SVR,[6],9.0 mmHg/L/min
same,LV dP/dtmin,[6],-3330
same,CO,[7],12.0 L/min
same,HR,[7],113 bpm
same,LV dP/dtmax,[7],5260 mmHg/s
same,MAP,[7],120 mmHg
same,SV,[7],106 mL
same,SVR,[7],10 mmHg/L/min
same,LV dP/dtmin,[7],-3020
same,CO,[8],12.9 L/min
same,HR,[8],134 bpm
same,LV dP/dtmax,[8],5430 mmHg/s
same,MAP,[8],105 mmHg
same,SV,[8],96 mL
same,SVR,[8],8.2 mmHg/L/min
same,LV dP/dtmin,[8],-2830
same,CO,[9],11.8 L/min
same,HR,[9],111 bpm
same,LV dP/dtmax,[9],5020 mmHg/s
same,MAP,[9],95 mmHg
same,SV,[9],106 mL
same,SVR,[9],8.0 mmHg/L/min
same,CO,[10],11.1 L/min
same,HR,[10],105 bpm
same,LV dP/dtmax,[10],4550 mmHg/s
same,MAP,[10],92 mmHg
same,SV,[10],106 mL
same,SVR,[10],8.3 mmHg/L/min
same,LV dP/dtmin,[10],-2820
same,CO,[11],11.4 L/min
same,HR,[11],105 bpm
same,LV dP/dtmax,[11],4730 mmHg/s
same,MAP,[11],102 mmHg
same,SV,[11],109 mL
same,SVR,[11],8.9 mmHg/L/min
same,LV dP/dtmin,[11],-3300
same,CO,[12],14.3 L/min
same,HR,[12],127 bpm
same,LV dP/dtmax,[12],5740 mmHg/s
same,MAP,[12],101 mmHg
same,SV,[12],113 mL
same,SVR,[12],7.1 mmHg/L/min
same,LV dP/dtmin,[12],-3190
same,LV dP/dtmin,[9],-2920
same,CO,[13],11.1 L/min
same,HR,[13],117 bpm
same,LV dP/dtmax,[13],3470 mmHg/s
same,MAP,[13],94 mmHg
same,SV,[13],95 mL
same,SVR,[13],8.5 mmHg/L/min
same,LV dP/dtmin,[13],-2500
same,CO,[14],9.7 L/min
same,HR,[14],116 bpm
same,LV dP/dtmax,[14],5860 mmHg/s
same,MAP,[14],80 mmHg
same,SV,[14],84 mL
same,SVR,[14],8.2 mmHg/L/min
same,LV dP/dtmin,[14],-4170
same,CO,[15],6.9 L/min
same,HR,[15],90 bpm
same,LV dP/dtmax,[15],3400 mmHg/s
same,MAP,[15],83 mmHg
same,SV,[15],76 mL
same,SVR,[15],12.1 mmHg/L/min
same,LV dP/dtmin,[15],-3670
same,CO,[16],6.7 L/min
same,HR,[16],92 bpm
same,LV dP/dtmax,[16],3420 mmHg/s
same,MAP,[16],84 mmHg
same,SV,[16],72 mL
same,SVR,[16],12.7 mmHg/L/min
same,LV dP/dtmin,[16],-3430
same,CO,[17],6.1 L/min
same,HR,[17],83 bpm
same,LV dP/dtmax,[17],3680 mmHg/s
same,MAP,[17],90 mmHg
same,SV,[17],73 mL
same,SVR,[17],14.8 mmHg/L/min
same,LV dP/dtmin,[17],-3640
same,CO,[18],7.2 L/min
same,HR,[18],91 bpm
same,LV dP/dtmax,[18],4250 mmHg/s
same,MAP,[18],94 mmHg
same,SV,[18],79 mL
same,SVR,[18],13.1 mmHg/L/min
same,LV dP/dtmin,[18],-4120
same,CO,[19],8.7 L/min
same,HR,[19],107 bpm
same,LV dP/dtmax,[19],4260 mmHg/s
same,MAP,[19],89 mmHg
same,SV,[19],82 mL
same,SVR,[19],10.2 mmHg/L/min
same,CO,[20],9.1 L/min
same,HR,[20],111 bpm
same,LV dP/dtmax,[20],5090 mmHg/s
same,MAP,[20],72 mmHg
same,SV,[20],82 mL
same,SVR,[20],7.9 mmHg/L/min
same,LV dP/dtmin,[20],-3740
same,CO,[21],7.0 L/min
same,HR,[21],87 bpm
same,LV dP/dtmax,[21],3950 mmHg/s
same,MAP,[21],97 mmHg
same,SV,[21],80 mL
same,SVR,[21],13.9 mmHg/L/min
same,LV dP/dtmin,[21],-4120
same,CO,[22],7.7 L/min
same,HR,[22],92 bpm
same,LV dP/dtmax,[22],4810 mmHg/s
same,MAP,[22],144 mmHg
same,SV,[22],83 mL
same,SVR,[22],18.9 mmHg/L/min
same,LV dP/dtmin,[22],-4140
same,LV dP/dtmin,[19],-3380
same,CO,[23],9.1 L/min
same,HR,[23],115 bpm
same,LV dP/dtmax,[23],5360 mmHg/s
same,MAP,[23],153 mmHg
same,SV,[23],79 mL
same,SVR,[23],16.8 mmHg/L/min
same,LV dP/dtmin,[23],-4460
same,CO,[24],7.8 L/min
same,HR,[24],101 bpm
same,LV dP/dtmax,[24],3800 mmHg/s
same,MAP,[24],77 mmHg
same,SV,[24],77 mL
same,SVR,[24],10.0 mmHg/L/min
same,LV dP/dtmin,[24],-3040
same,adverse effect on hemodynamics or LV function,pilot studies of two healthy animals,No adverse effect
